Measured values: US20210087195A1, “NEW CRYSTAL FORM OF ACALBRUTINIB, PREPARATION METHOD THEREFOR AND USE THEREOF” (Crystal Pharmaceutical (Suzhou) Co., Ltd., priority 2018, published 2021)
Values after ≈ are worked out from the molar mass of the structure shown. “Also recorded” adds a separate entry of the source. Like-named read-outs stand apart in the source and are kept apart here.

How the values were obtained:
Type in all cases: physicochemical
[1] = Adhesiveness (amount sticking to the punch); conditions: φ8 mm round tooling, 10 kN, held 30 s, compression repeated twice
Description: Approximately 30 mg of Form K1 or Form I of WO2017002095A1 was weighed and then added into the dies of φ8 mm round tooling, compressed at 10 kN and held for 30 s. The amount of material sticking to the punch was weighed. The compression was repeated twice and the cumulative amount and average amount of solids sticking to the punch during the compression were recorded.

[2] = Physical stability of crystalline form in water (suspension, magnetic stirring or shaking, XRPD); conditions: for Physical stability in water (crystalline form change): magnetic stirring and shaking at room temperature and 5° C., up to 7 days
Description: The following experiments were conducted to compare physical stability of Form K1 of the present disclosure and Form I of WO2017002095A1 in water. Approximately 10 mg of Form K1 and Form I solids were added into 1.0 mL of pure water separately to form suspensions. The suspensions were dispersed by magnetic stirring and shaking at room temperature and 5° C. to evaluate the physical stability of Form K1 and Form I of WO2017002095A1 in water.

[3] = Solubility in buffers of pH 7.0, 7.4 and 8.7 (HPLC); conditions: for solubility at 2 h: phosphate buffer, thermodynamic from solid, read-out: Solubility after equilibration for 2 hours
Description: A sufficient amount of Form K1 or Form I of WO2017002095A1 was suspended in buffers of pH 7.0, 7.4 and 8.7. After being stirred and equilibrated for 2 hours, the suspension was centrifuged to obtain supernatant. Concentration (mg/mL) of the supernatant was analyzed by HPLC.

[4] = Solubility in organic solvents (incremental solvent addition)
Description: A certain amount of Form K1 or Form I of WO2017002095A1 was added into a glass vial. Organic solvent was added into the glass vial in increments of 100 μL. Solid was quickly dispersed in solvent through oscillation or sonication, and the process was monitored to see whether the solid was completely dissolved. No more solvent was added when solids were completely dissolved, or a total volume of solvent reached 1.5 mL. According to mass of sample (m) and volume of solvent added, solubility (S) of different crystalline forms in organic solvent was calculated.

[5] = Compressibility (tensile strength of compressed powder); conditions: φ6 mm round tooling, compressed at 10 kN, T=2H/πDL
Description: Approximately 80 mg of Form K1 or Form I of WO2017002095A1 was added into the dies of φ6 mm round tooling, compressed at 10 kN manually, and then stored in a desiccator for 24 hours until complete elastic recovery. Radial crushing force (hardness, H) was tested with an intelligent tablet hardness tester. Diameter (D) and thickness (L) were tested with a caliper. Tensile strength of the powder with different hardness was calculated with the following formula: T=2H/πDL. Under a certain force, the greater the tensile strength, the better the compressibility.

[6] = Slurry competition experiments between Form K1 and Form I in water; conditions: 5° C. and room temperature
Description: Approximately 30 mg of Form K1 and Form I of WO2017002095A1 were weighed and suspended into water at 5° C. and room temperature, to evaluate the stability of Form K1 and Form I of WO2017002095A1.

[7] = Physical stability under manual grinding (XRPD); conditions: ground manually in a mortar for 5 minutes
Description: Form K1 was ground manually in a mortar for 5 minutes.

[8] = Stability of drug substance at long-term and accelerated conditions (XRPD); conditions: for Solid form after storage: one month
Description: Four samples, 10 mg each of Form K1 of the present disclosure was stored in HPLC glass vials. The HPLC glass vials were capped in sealed conditions, or covered with Parafilm with 3-5 pinholes in open conditions. After one month, solid forms were checked by XRPD.

[9] = Form change during capsule formulation process (XRPD); conditions: before and after capsule preparation
Description: Form K1 capsules were prepared according to the formulation listed in Table 11 and the preparation process described in Table 12. XRPD was performed to test the form change before and after capsule preparation.

[10] = listed as Form I of WO2017002095A1

## CC#CC(=O)N1CCC[C@H]1c1nc(-c2ccc(C(=O)Nc3ccccn3)cc2)c2c(N)nccn12 [Form I, (S)-4-(8-amino-3-(1-(but-2-ynoyl)pyrrolidin-2-yl)imidazo[1,5-a]pyrazin-1-yl)-N-(pyridin-2-yl)benzamide, reference compound]
[1]; [10]
  Average amount sticking to the punch: 45 µg
  Cumulative amount sticking to the punch: 90 µg
[2]
  Physical stability in water (crystalline form change): crystallinity decrease and almost converts into amorphous
[2]; water, magnetic stirring, room temperature, 4 hours
  Solid form changes in the suspension: crystallinity decrease and almost converts into amorphous
[3]; pH = 7.0 phosphate aqueous solution
  Solubility after equilibration for 2 hours: 0.064 mg/mL
[3]; pH = 7.4 phosphate aqueous solution
  Solubility after equilibration for 2 hours: 0.055 mg/mL
[3]; pH = 8.7 phosphate aqueous solution
  Solubility after equilibration for 2 hours: 0.056 mg/mL
[4]; 1,4-Dioxane
  Solubility: S < 13.1 mg/mL
[4]; 2-methyltetrahydrofuran
  Solubility: S < 8.9 mg/mL
[4]; Acetone
  Solubility: S < 6.5 mg/mL
[4]; Acetonitrile
  Solubility: S < 7.8 mg/mL
[4]; Ethanol
  Solubility: S < 6.4 mg/mL
[4]; Ethyl acetate
  Solubility: S < 7.9 mg/mL
[4]; Isopropanol
  Solubility: S < 6.5 mg/mL
[4]; Methanol
  Solubility: S < 27.0 mg/mL
[4]; Methyl ethyl ketone
  Solubility: S < 7.6 mg/mL
[4]; Methyl isobutyl ketone
  Solubility: S < 7.7 mg/mL
[4]; Tetrahydrofuran
  Solubility: S < 16.1 mg/mL
[4]; n-Butanol
  Solubility: S < 8.7 mg/mL
[4]; n-Propanol
  Solubility: S < 7.5 mg/mL
[5]; [10]
  Tensile strength: Unable to be compressed into a tablet
[6]
  Form conversion in slurry competition: convert into Form K1

## CC#CC(=O)N1CCC[C@H]1c1nc(-c2ccc(C(=O)Nc3ccccn3)cc2)c2c(N)nccn12 [Form K1, (S)-4-(8-amino-3-(1-(but-2-ynoyl)pyrrolidin-2-yl)imidazo[1,5-a]pyrazin-1-yl)-N-(pyridin-2-yl)benzamide]
[7]
  Physical stability under grinding (form change): no obvious form change or crystallinity decrease
[8]; 25° C./60% RH and 40° C./75% RH, sealed and open
  Stability of drug substance (time kept stable): stable for at least one month
[8]; 25° C./60% RH, open
  Solid form after storage: Form K1
[8]; 25° C./60% RH, sealed
  Solid form after storage: Form K1
[8]; 40° C./75% RH, open
  Solid form after storage: Form K1
[8]; 40° C./75% RH, sealed
  Solid form after storage: Form K1
[1]
  Average amount sticking to the punch: 30 µg
  Cumulative amount sticking to the punch: 60 µg
[2]
  Physical stability in water (crystalline form change): no crystalline form change; also recorded: doesn't change
[9]
  Form change during capsule formulation process: doesn't change
[3]; pH 7, aqueous buffer, pH = 7.0 phosphate aqueous solution
  solubility at 2 h: 79 µg/mL (≈ 170 µM)
[3]; pH 7.4, aqueous buffer, pH = 7.4 phosphate aqueous solution
  solubility at 2 h: 69 µg/mL (≈ 148 µM)
[3]; pH 8.7, aqueous buffer, pH = 8.7 phosphate aqueous solution
  solubility at 2 h: 66 µg/mL (≈ 142 µM)
[4]; 1,4-Dioxane
  Solubility: S > 102.0 mg/mL
[4]; 2-methyltetrahydrofuran, organic solvent or mixture, thermodynamic from solid, 2-methyltetrahydrofuran, read-out: Solubility
  Solubility: > 17.6 mg/mL
[4]; Acetone
  Solubility: S > 137.0 mg/mL
[4]; Acetonitrile
  Solubility: S > 36.3 mg/mL
[4]; Ethanol
  Solubility: S > 120.0 mg/mL
[4]; Isopropanol
  Solubility: S > 48.0 mg/mL
[4]; Methanol
  Solubility: S > 89.0 mg/mL
[4]; Methyl ethyl ketone
  Solubility: S > 114.0 mg/mL
[4]; Tetrahydrofuran
  Solubility: S > 142.0 mg/mL
[4]; ethyl acetate, organic solvent or mixture, thermodynamic from solid, Ethyl acetate, read-out: Solubility
  Solubility: > 13.2 mg/mL
[4]; methyl isobutyl ketone, organic solvent or mixture, thermodynamic from solid, Methyl isobutyl ketone, read-out: Solubility
  Solubility: > 10 mg/mL
[4]; n-Butanol
  Solubility: S > 30.3 mg/mL
[4]; n-Propanol
  Solubility: S > 58.0 mg/mL
[5]
  Tensile strength: 1.31 MPa
